According to patent US12383556B2, “Methods of treating Sjögren's syndrome using a Bruton's tyrosine kinase inhibitor” (NOVARTIS AG, priority 2019, dated 2025):

Experiments:
[1] = test system: mast cell FcγRIII-mediated inflammation; test: Reverse passive Arthus (RPA) model, skin swelling; assay type: in vivo
Experimental: As the levels of BTK-expressing cells in skin were too low to allow occupancy measurement, the duration of the PD effect in skin after single dose was assessed in the reverse passive Arthus (RPA) model of mast cell FcγRIII-mediated inflammation. In this model, the inhibition of skin swelling was maximal when compound (I) was dosed 2 hours prior to eliciting the Arthus reaction. The effect diminished gradually and reached baseline when the Arthus reaction was triggered 45 hours or later after compound (I) dosing.

[2] = First-in-human Part 4 multiple dose b.i.d. blood PK; assay type: in vivo
From the text: First-in-human study in up to approximately 168 healthy volunteers (HVs), of which 64 (in Parts 2 & 4) had asymptomatic atopic diathesis. • Part 1 was a double-blind (subject and investigator blind, sponsor unblinded), placebo-controlled single ascending dose (SAD) escalation study of 10 cohorts (N=80) • Part 2 was a double-blind (subject and investigator blind, sponsor unblinded), placebo-controlled multiple ascending dose (MAD) (13 doses over 12 days) escalation study employing once daily dosing in 6 cohorts in healthy volunteers with asymptomatic atopic diathesis (N=48) • Part 3 was a single dose open-label crossover food effect study in 12 HVs • Part 4 was a double-blind (subject and investigator blind, sponsor unblinded), placebo-controlled multiple dose (25 doses over 12 days) study employing twice daily dosing in 2 cohorts of healthy volunteers with asymptomatic atopic diathesis (N=16)
In Parts 2 and 4, subjects were admitted on Day −2 or −1 for baseline safety assessments and to confirm eligibility. Eligible subjects received the first dose of compound (I) under fasting conditions on Day 1, and continued to take study medication under fasting conditions up to and including Day 12. Subjects were domiciled from Day −2 or −1 until the morning of Day 16, which equals 96 hours after the last dose of compound (I) was received. In Parts 2 and 4, the study medication was given once daily and twice daily respectively (details are found in the schedule of assessments).
Subjects were assigned to one of the following cohorts. In each cohort, 8 subjects were randomized to either Compound (I) or matching placebo in a 6:2 ratio. • Cohort 1: multiple oral doses of 100 mg Compound (I) or matching placebo in a bid regimen • Cohort 2: multiple oral doses of 200 mg Compound (I) or matching placebo in a bid regimen
Pharmacokinetic samples were obtained in blood and evaluated in all subjects at all dose levels. The samples from placebo subjects were not analyzed. […] Compound (I) concentrations were determined in blood by a validated LC-MS/MS method.

BTK = biological target: T1, BTK (Homo sapiens, UniProt Q06187); test: BTK occupancy in human whole blood (free and total BTK ELISA, MSD); assay type: in vivo
T1 construct: from tissue; host or cells: human whole blood (peripheral blood of dosed volunteers)
Experimental: Pharmacodynamics (PD) was characterized by assessing target occupancy and distal pathway inhibition. Measurements of BTK occupancy in human whole blood (derived as ratio of free and total BTK), served as direct marker of therapeutic target engagement.
Compound of formula (I) is an irreversible inhibitor of BTK, the extent and duration of BTK occupancy were determined.
The relationship between dose and pharmacodynamics was characterized by measurements of BTK occupancy in human blood (derived as ratio of free and total BTK), a direct marker of therapeutic target engagement. BTK occupancy was determined for single ascending doses ranging 0.5 to 400 mg, for q.d. multiple ascending doses ranging from of 10 mg and 400 mg, and for b.i.d. multiple ascending doses of 100 mg and 200 mg.

[3] = test system: FcεR1-mediated basophil activation; test: Ex vivo basophil activation (CD63, CD203c), whole blood stimulated with anti-IgE, flow cytometry; assay type: in vivo, human
Experimental: In addition, ex vivo inhibition of basophil activation (monitored by surface expression of CD63 and CD203c) was used as distal mechanistic biomarker to test downstream PD effects of compound (I). To determine the PD effect of compound (I) on basophil activation, whole blood was stimulated ex vivo with anti-IgE. Degranulation was evaluated by percentage of CD63+ and CD203+ basophils by flow cytometry.

[4] = Safety and tolerability in healthy volunteers (first-in-human study); assay type: in vivo; settings: for overall safety assessment: dosing up to 600 mg (200 mg twice daily)
Experimental: Standard safety monitoring was used throughout all study parts. A dedicated assessment of potential skin bruising events were included. All vital signs, physical examination and subject history, ECGs, adverse events, and laboratory safety parameters (blood chemistry, hematology and urinalysis) up to 96 hours post last dose as well as PK data from the previous dose group (if available) up to 48 hours post last dose were to be reviewed in a blinded fashion for each cohort before dose escalation. Summary safety reports of reported adverse events, clinical safety laboratory parameters, QTc and heart rate were provided after completion of each dose level.
For the analysis of adverse effects, the Placebo subjects from all SAD and MAD cohorts (2 per cohort) and separated by the SAD and MAD parts were pooled into one Placebo group (n=20 for SAD and n=16 for MAD) to be compared with each single compound (I) dose group (n=6 each) and the total compound (I) group (n=60 for SAD and n=48 for MAD). There were no apparent major differences in the demographic data between placebo and the active groups both for the SAD and MAD populations.

[5] = after single dose, peripheral blood

T1 sequence (Q06187 whole entry): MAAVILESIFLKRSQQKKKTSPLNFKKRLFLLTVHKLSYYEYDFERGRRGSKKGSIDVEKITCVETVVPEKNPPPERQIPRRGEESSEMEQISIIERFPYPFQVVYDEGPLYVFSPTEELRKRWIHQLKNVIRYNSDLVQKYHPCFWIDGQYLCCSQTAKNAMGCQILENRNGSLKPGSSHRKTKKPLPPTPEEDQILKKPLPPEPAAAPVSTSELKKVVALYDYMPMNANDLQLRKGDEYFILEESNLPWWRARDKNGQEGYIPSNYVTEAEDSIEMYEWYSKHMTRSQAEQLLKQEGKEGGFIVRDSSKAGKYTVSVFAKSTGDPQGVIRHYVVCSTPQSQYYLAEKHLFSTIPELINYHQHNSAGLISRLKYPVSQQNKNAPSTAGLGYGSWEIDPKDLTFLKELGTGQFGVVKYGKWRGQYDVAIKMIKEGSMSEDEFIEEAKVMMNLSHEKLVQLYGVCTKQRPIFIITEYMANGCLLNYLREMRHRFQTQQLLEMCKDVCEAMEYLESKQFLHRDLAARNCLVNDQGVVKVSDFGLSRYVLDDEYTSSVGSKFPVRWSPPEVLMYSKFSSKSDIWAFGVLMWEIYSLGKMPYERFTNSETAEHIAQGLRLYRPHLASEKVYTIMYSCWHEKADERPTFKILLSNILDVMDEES

## C=CC(=O)N(C)CCOc1c(N)ncnc1-c1cc(F)cc(NC(=O)c2ccc(C3CC3)cc2F)c1C [Compound of Formula (I), N-(3-(6-Amino-5-(2-(N-methylacrylamido)ethoxy)pyrimidin-4-yl)-5-fluoro-2-methylphenyl)-4-cyclopropyl-2-fluorobenzamide]
[1]; single dose
  time after dosing of Arthus trigger at which effect reached baseline: ≥ 45 h
[1]; single dose 2 hours prior to eliciting the Arthus reaction
  inhibition of skin swelling: maximal
[2]; day 12
  increase of AUCtau from 100 mg to 200 mg b.i.d.: dose proportional increase
  increase of Cmax from 100 mg to 200 mg b.i.d.: 1.33 fold
[2]; human, blood, oral, b.i.d. regimen 100 mg and 200 mg
  Tmax: ~1 h
BTK; 10 mg q.d.
  BTK occupancy in blood: nearly complete
BTK; 10 mg q.d., pre-dose at day 12
  through BTK occupancy in blood: > 96%
BTK; [5]
  median BTK turnover T1/2: about 48 hours
  time to refresh BTK protein pool to pre-dose levels: about 10 days
BTK; in vivo
  duration of BTK occupancy in blood: > 24 h
BTK; peripheral blood
  time of peak target occupancy post dose: 0.5 h
BTK; single doses of 15 mg and above
  BTK occupancy at 24 h: above 80%
BTK; single doses of 15 mg and above, nearly all subjects
  peak target (BTK) occupancy: ~100%
BTK; single doses of 30 mg and higher
  duration of sustained BTK occupancy: > 24 h
BTK; single doses of 30 mg and higher, all subjects
  BTK occupancy (near-complete): > 90%
[3]; 10 mg q.d., as restated
  reduction of CD63 up-regulation: > 80%
[3]; 10 mg q.d., day 12 (steady state), 8 h after administration
  inhibition of CD63 upregulation: > 90%
[3]; Day 12, multiple doses
  maximum trough inhibition of CD203c activation: only achieved with b.i.d. administration of 100 mg and 200 mg
[3]; doses ≥50 mg q.d., day 12
  trough level inhibition of CD63: > 90%
[3]; single dose 60 mg, 24 h post dose
  inhibition of ex vivo basophil activation measured by CD63: > 89%
[3]; single dose 200 mg, 24 h post dose
  maximum inhibition of CD203c: ~50%
[3]; single doses higher than 60 mg, 24 h post dose
  inhibition of ex vivo basophil activation measured by CD63: ~100%
[4]; 0.5 mg to 600 mg, healthy volunteers
  serious or severe adverse events related to intake: no serious or severe adverse event
[4]; 0.5 mg to 600 mg, single dose or up to 18 days once or twice daily
  tolerability: well tolerated
[4]
  overall safety assessment: proven to be safe
[4]; listed as compound (I)
  overall safety assessment: does not reveal significant safety concerns
[4]; healthy volunteers
  nature of observed adverse events: generally mild in nature
